Paper PMC4888278, “Structural determinant for inducing RORgamma specific inverse agonism triggered by a synthetic benzoxazinone ligand” (BMC Structural Biology, 2016)

Experiments:
RORγ [1] = biological target: T1, RORγ (Homo sapiens, UniProt P51449); test: FRET based assay monitoring coactivator peptide TRAP220 recruitment to RORγ; assay type: biochemical
T1 construct: sub-cloning residues 259 to 518 of a human RORγ cDNA; GST (PreScission site) (N); made in house; host or cells: Escherichia coli BL21 (DE3)
T1 sequence (P51449 259-518): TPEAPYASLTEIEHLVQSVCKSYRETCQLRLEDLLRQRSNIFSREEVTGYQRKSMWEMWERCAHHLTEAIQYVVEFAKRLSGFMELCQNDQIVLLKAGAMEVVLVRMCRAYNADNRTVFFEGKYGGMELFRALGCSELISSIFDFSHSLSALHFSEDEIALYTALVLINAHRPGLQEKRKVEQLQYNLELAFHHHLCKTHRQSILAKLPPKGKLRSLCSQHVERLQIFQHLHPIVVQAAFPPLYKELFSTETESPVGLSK
Experimental: (§1) FRET-based (Fluorescence Resonance Energy Transfer) assay and the GAL4 Reporter assay were performed as described previously. BIO592 and BIO399 were synthesized (Additional file 1) and belonged to a proprietary library where they were identified as RORγ activity modulators using the FRET-based assay.

RORγ-GAL4 fusion = biological target: T2, RORγ-GAL4 fusion (Homo sapiens, UniProt P51449); test: GAL4 cellular luciferase reporter assay, RORγ-GAL4 fusion; assay type: cell-based
T2 construct: expressed in transfected cells
T2 sequence (P51449 269-508 limits assumed): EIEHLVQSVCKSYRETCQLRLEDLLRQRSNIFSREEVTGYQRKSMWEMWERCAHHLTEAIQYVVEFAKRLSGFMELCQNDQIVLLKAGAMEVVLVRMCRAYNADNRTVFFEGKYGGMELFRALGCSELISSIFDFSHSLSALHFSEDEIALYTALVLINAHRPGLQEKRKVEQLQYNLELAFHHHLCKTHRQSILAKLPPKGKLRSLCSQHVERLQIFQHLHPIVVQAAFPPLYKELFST
Experimental: as §1
(§2) In order to assess the in vivo selectivity profile of BIO399 a cellular reporter assay was implemented where the ligand binding domains of ROR α, β and γ were fused to the DNA binding domain of the transcriptional factor GAL4. The ROR-GAL4 fusion proteins were expressed in cells with the luciferase reporter gene under the control of a GAL4 promoter. […] The LBS of RORs share a high degree of similarity. However, the inverse agonism trigger of BIO399, residue Met358, is a leucine in both RORα and β. This selectivity profile for BIO399 is attributed to the shorter leucine side chain in RORα and β which would not reach the phenylalanine on the AF2 helix further underscoring the role of Met358 as a trigger for RORγ specific inverse agonism (Fig. 7a). Furthermore, RORα contains two phenylalanine residues in its LBS whereas RORβ and γ have a leucine in the same position (Fig. 6b). We hypothesize that the two phenylalanine residues in the LBS of RORα occlude the dihydrobenzoxazepinone ring system of BIO399 from binding it and responsible for the increase in […].

[2] = biological target: T3, GAL4 fused to the LBD of RORα (Homo sapiens, UniProt P35398); test: GAL4 cellular luciferase reporter assay, GAL4 fused to LBD of RORα; assay type: cell-based
T3 construct: cells expressing GAL4 fused to the LBD of ROR α or β, respectively; expressed in transfected cells
T3 sequence (P35398 272-510 limits assumed): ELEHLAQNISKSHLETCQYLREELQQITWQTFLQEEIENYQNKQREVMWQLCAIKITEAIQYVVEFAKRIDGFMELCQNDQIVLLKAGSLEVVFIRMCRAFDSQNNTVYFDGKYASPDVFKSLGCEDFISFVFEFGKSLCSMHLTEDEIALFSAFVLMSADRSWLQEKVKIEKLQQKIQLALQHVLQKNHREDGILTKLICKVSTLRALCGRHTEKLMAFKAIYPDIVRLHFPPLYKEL
Experimental: as §1, §2

[3] = biological target: T4, GAL4 fused to the LBD of RORβ (Homo sapiens, UniProt Q92753); test: GAL4 cellular luciferase reporter assay, GAL4 fused to LBD of RORβ; assay type: cell-based
T4 construct: cells expressing GAL4 fused to the LBD of ROR α or β, respectively; expressed in transfected cells
T4 sequence (Q92753 222-460 limits assumed): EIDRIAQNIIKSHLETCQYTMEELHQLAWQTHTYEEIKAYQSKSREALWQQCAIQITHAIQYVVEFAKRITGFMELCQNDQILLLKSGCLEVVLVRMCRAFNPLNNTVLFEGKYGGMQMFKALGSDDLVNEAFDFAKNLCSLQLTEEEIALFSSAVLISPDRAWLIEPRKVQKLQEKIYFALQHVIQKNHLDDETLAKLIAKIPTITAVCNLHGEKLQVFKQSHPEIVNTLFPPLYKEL
Experimental: as §1, §2

RORγ [4] = test system: RORγ; set-up: method as in PMID 24239186; conditions: SRC1 displacement FRET assay; cited from earlier work
[5] = biological target: T5, RORγ518 (human RORγ ligand binding domain, residues 259-518) (human, UniProt P51449 259-518); test: crystal structure; RORγ518 8 mg/ml with 0.5 mM EBI96 and 1 mM agonist BIO592; vapor diffusion, 0.1 M HEPES pH 8.0, 25 % PEG3350, 0.2 M NaCl, 18 °C; 2.63 Å, P21, four ternary complexes in the asymmetric unit; conditions: both partners purified
T5 construct: Cloned in pGEX-6P; GST removed with PreScission Protease before SEC, crystallisation and proteolysis; also called GST-RORγ518 (before cleavage); source: E. coli BL21 (DE3), purified (Glutathione Sepharose, PreScission Protease, Superdex 75); not shown: GST, N-terminal, cleaved
T5 sequence (looked up): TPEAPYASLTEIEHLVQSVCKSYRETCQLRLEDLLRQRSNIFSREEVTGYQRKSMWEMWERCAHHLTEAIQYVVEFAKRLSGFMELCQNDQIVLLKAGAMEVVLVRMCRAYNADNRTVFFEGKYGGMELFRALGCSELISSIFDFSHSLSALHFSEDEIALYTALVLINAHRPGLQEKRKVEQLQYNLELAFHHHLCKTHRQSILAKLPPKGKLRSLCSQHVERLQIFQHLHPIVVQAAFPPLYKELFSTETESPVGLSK

CCN1C(=O)C(C)(C)COc2cc(N(CC(F)(F)F)S(=O)(=O)c3ccc(C)c(C)c3)ccc21 [BIO399, N-(9-Ethyl-7,7-dimethyl-8-oxo-6,7,8,9-tetrahydro-5-oxa-9-aza-benzocyclohepten-3-yl)-3,4-dimethyl-N-(2,2,2-trifluoro-ethyl)-benzenesulfonamide]
IC50 (RORγ [1]; inverse agonist, inhibition of coactivator recruitment in the authors' FRET assay): 4.7 nM
IC50 (RORγ-GAL4 fusion; GAL4 cell assay, RORγ, N = 6): 43 nM
IC50 (RORγ-GAL4 fusion; luciferase activity, cells expressing RORγ-GAL4 fusion): 42.5 nM
IC50 ([2]; GAL4 cell assay, RORα, N = 2): > 10 µM
Selectivity ([2]; GAL4 cell assay, RORγ versus RORα): >235 X
fold selectivity over RORα ([2]; GAL4 reporter, RORγ versus RORα): > 235 fold
IC50 ([3]; GAL4 cell assay, RORβ, N = 2): > 1200 nM
Selectivity ([3]; GAL4 cell assay, RORγ versus RORβ): >28.2 X
fold selectivity over RORβ ([3]; GAL4 reporter, RORγ versus RORβ): > 28 fold

CCN1C(=O)COc2cc(N(CC(F)(F)F)S(=O)(=O)c3ccc(C)c(C)c3)ccc21 [BIO592, N-(4-ethyl-3-oxo-3,4-dihydro-2H-benzo[b][1,4]oxazin-7-yl)-3,4-dimethyl-N-(2,2,2-trifluoroethyl)benzenesulfonamide]
Emax (RORγ [1]; agonist, coactivator peptide TRAP220 recruitment): 130%
EC50 (RORγ [1]; agonist, increase of coactivator peptide TRAP220 recruitment to RORγ): 58 nM

B1: coactivator peptide EBI96 (peptide)
peptide: EFPYLLSLLGEVSPQ
notes: source: synthetic peptide; bought: New England Peptide
binding result [5]: binds
